Test results from patent US9593136B2 (priority 2011, dated 2017).
Converted amounts (≈) assume the structure as drawn. Where two headings read alike, the source gives them in different places.

How the values were obtained:
E. coli k12 = experiment: microbe, parasite or virus in culture; type: cell-based; details: Escherichia coli, K12, read-out: MIC E. coli k12
E. faecalis = experiment: microbe, parasite or virus in culture; type: cell-based; details: Enterococcus faecalis, read-out: MIC E. faecalis
MRSA NRS 70 = experiment: microbe, parasite or virus in culture; type: cell-based, S. aureus; details: Staphylococcus aureus
M. tuberculosis Dxr = M. tuberculosis Dxr (Mycobacterium tuberculosis, UniProt P9WNS1); experiment: biochemical; details: IC50 (μM)
Chain of M. tuberculosis Dxr (P9WNS1 whole entry, looked up): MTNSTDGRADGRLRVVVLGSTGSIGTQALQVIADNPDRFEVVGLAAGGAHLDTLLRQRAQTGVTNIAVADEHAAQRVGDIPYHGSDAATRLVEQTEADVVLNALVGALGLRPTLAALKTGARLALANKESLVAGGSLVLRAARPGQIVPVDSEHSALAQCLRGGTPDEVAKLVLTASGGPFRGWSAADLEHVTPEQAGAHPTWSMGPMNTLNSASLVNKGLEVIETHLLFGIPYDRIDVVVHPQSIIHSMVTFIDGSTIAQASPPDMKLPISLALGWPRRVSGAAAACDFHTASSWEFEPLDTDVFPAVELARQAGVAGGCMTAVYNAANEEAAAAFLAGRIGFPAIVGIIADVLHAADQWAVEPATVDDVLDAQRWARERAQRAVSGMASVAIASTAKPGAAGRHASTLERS

B. anthracis = experiment: microbe, parasite or virus in culture; type: cell-based, Bacillus anthracis; details: for MIC: Bacillus anthracis, read-out: MIC B. anthracis
Mtb H37Rv (ATCC 27294) = experiment: microbe, parasite or virus in culture; type: cell-based, Mycobacterium tuberculosis; details: for MIC: Mycobacterium tuberculosis
Acinetobacter = experiment: microbe, parasite or virus in culture; type: cell-based; details: Acinetobacter, read-out: MIC Acinetobacter
S. aureus (MSSA) = experiment: microbe, parasite or virus in culture; type: cell-based; details: Staphylococcus aureus, MSSA, read-out: MIC S. aureus (MSSA)
E. coli tolc = experiment: microbe, parasite or virus in culture; type: cell-based; details: Escherichia coli, read-out: MIC E. coli tolc
Klebsiella = experiment: MIC against Klebsiella; type: cell-based; details: Table 1
Protocol: (§1) The following compounds have been synthesized and tested for their activities against bacteria (Table 1) and their abilities to inhibit Dxr (Table 2). MIC is determined as described in Yendapally et al. (Journal of Medicinal Chemistry 2008, 51, 1487); and IC50 is determined as described in Henriksson et al. (Journal of Biological Chemistry 2007, 282, 19905).

S. pneumonia = experiment: MIC against S. pneumonia; type: cell-based; details: Table 1
Protocol: as §1

P. aeruginosa = experiment: MIC against P. aeruginosa; type: cell-based; details: Pseudomonas aeruginosa; Table 1
Protocol: as §1

[1] = read-out: MIC M. tuberculosis (H37Rv)

| Compound | MIC (E. coli k12) [µg/mL] | MIC (E. faecalis) [µg/mL] | MIC (B. anthracis) [µg/mL] | MIC (Mtb H37Rv (ATCC 27294); read-out: Mtb MIC (ug/mL)) [µg/mL] | MIC (Acinetobacter) [µg/mL] | MIC (S. aureus (MSSA)) [µg/mL] | MIC (E. coli tolc) [µg/mL] | MIC (Klebsiella) [µg/mL] | MIC (MRSA NRS 70; read-out: MIC MRSA NRS 70) [µg/mL] | MIC (S. pneumonia) [µg/mL] | MIC (P. aeruginosa) [µg/mL] | MIC (Mtb H37Rv (ATCC 27294); read-out: MIC H37 Rv) [µg/mL] | other results |
| --- | --- | --- | --- | --- | --- | --- | --- | --- | --- | --- | --- | --- | --- |
| CC(=O)N(O)CCCP(=O)(O)O [FR900098, reference compound] | 200 (≈ 1010 µM) | > 200 | 50 (≈ 254 µM) | > 200 | 50 (≈ 254 µM) | > 200 | 12.5 (≈ 63.4 µM) |  |  |  |  |  | MIC (MRSA NRS 70; read-out: MIC S. aureus (MRSA)): 50 µg/mL (≈ 254 µM); IC50 (M. tuberculosis Dxr): 2 µM; antitubercular activity (in words) (Mtb H37Rv (ATCC 27294)): inactive; MIC (Mtb H37Rv (ATCC 27294); [1]): > 500 µg/mL |
| O=CN(O)CCCP(=O)(O)O [Fosmidomycin, reference compound] | 12.5 (≈ 68.3 µM) | > 200 | 0.78 (≈ 4.26 µM) |  | 100 (≈ 546 µM) | > 200 | 6.25 (≈ 34.1 µM) |  |  |  |  |  | MIC (MRSA NRS 70; read-out: MIC S. aureus (MRSA)): 200 µg/mL (≈ 1090 µM); activity against B. anthracis (MIC) (B. anthracis): 0.78 lg/mL; MIC (Mtb H37Rv (ATCC 27294); read-out: MIC 7H9 (μg/mL)): > 500 µg/mL; MIC (Mtb H37Rv (ATCC 27294); read-out: MIC GAST/Fe (μg/mL)): > 500 µg/mL; MIC (Mtb H37Rv (ATCC 27294); [1]): > 500 µg/mL |
| CCOP(=O)(CCCN(OCc1ccccc1)C(C)=O)OCC [GSJ 20 (Rotamer B)] | > 200 | > 200 | > 200 | > 200 | > 200 | > 200 | > 200 | > 200 | > 200 | > 200 | > 200 | > 200 |  |
| CCOP(=O)(CCCN(OCCc1ccccc1)C(C)=O)OCC [GSJ 25] | > 200 | > 200 | > 200 | > 200 | > 200 | > 200 | > 200 | > 200 | > 200 | > 200 | > 200 | > 200 |  |
| CCOP(=O)(CCCN(OCCCCc1ccccc1)C(C)=O)OCC [GSJ 26] | > 200 | 200 (≈ 519 µM) | > 200 |  | > 200 | 100 (≈ 259 µM) | 200 (≈ 519 µM) | > 200 | 200 (≈ 519 µM) | > 200 | > 200 |  | MIC H37 Rv (Mtb H37Rv (ATCC 27294)): Some act 200; Mtb MIC (ug/mL) (Mtb H37Rv (ATCC 27294)): SA 200 |
| CCOP(=O)(CCCN(OCCCc1ccccc1)C(C)=O)OCC [GSJ 27] | > 200 | > 200 | > 200 | > 200 | > 200 | > 200 | > 200 | > 200 | > 200 | > 200 | > 200 | > 200 |  |
| CCOP(=O)(CCCN(OC(C)c1ccccc1)C(C)=O)OCC (stereo not shown) [GSJ 28] | > 200 | > 200 | > 200 | > 200 | > 200 | 100 (≈ 280 µM) | > 200 | > 200 | 50 (≈ 140 µM) | > 200 | > 200 | > 200 |  |
| CCOP(=O)(CCCN(OCCCc1ccc(OC)cc1)C(C)=O)OCC [GSJ 30] | > 200 | > 200 | > 200 | > 200 | > 200 | > 200 | > 200 | > 200 | > 200 | > 200 | > 200 | > 200 |  |
| CCOP(=O)(CCCN(OCCc1ccc(OC)cc1)C(C)=O)OCC [GSJ 31] | > 200 | > 200 | > 200 | > 200 | > 200 | 200 (≈ 516 µM) | > 200 | > 200 | 50 (≈ 129 µM) | > 200 | > 200 | > 200 |  |
